From patent US20080113956A1, “Substituted Porphyrins” (priority 1997, published 2008)

Assays:
[1] = test system: DNA; assay: SOD activity in vitro in the presence of DNA (DNA interaction); format: biochemical
Description: The “ortho effect” also decreases the toxicity. It is well known that porphyrins, and particularly cationic porphyrins, interact with DNA and can act as DNA cleavers. This fact can be an issue in the use of metallo-porphyrins as anti-tumor drugs. The present mimetics avoid this interaction.
In order to maximize the decrease in toxicity due to interaction with DNA, two derivatives of the ortho compound have been prepared which carry four ethyl or four butyl groups (“4” and “5”, respectively).

[2] = test system: lung injury; assay: Bronchopulmonary dysplasia model: premature neonatal baboon in 100% oxygen; format: in vivo
Description: Neonatal baboons were delivered prematurely by Caesarian section and then treated either with 100% oxygen or only sufficient PRN FIO2 to maintain adequate arterial oxygenation. To establish the model, thirteen 100% oxygen treated animals and twelve PRN control animals were studied. Treatment with 100% oxygen results in extensive lung injury manifested by days 9 or 10 of exposure and characterized by delayed alveolarization, lung parenchymal inflammation, and poor oxygenation. This is characteristic of the human disease, bronchopulmonary dysplasia and is thought to be mediated, at least in part, by oxidative stress on the developing neonatal lung. In a first trial of Mn TE-2-PyP, a neonatal baboon was delivered at 140 days gestation and placed in 100% oxygen. The animal received 0.5 mg/kg/24 hr Mn TE-2-PyP qd given i.v. in a continuous infusion over the entire 10 day study period.

[3] = SOD activity in U/mg (reduction of cytochrome c or photoreduction of NBT); format: biochemical; conditions: for SOD: unit = amount that inhibits one half the reduction of cytochrome c or photoreduction of NBT
[4] = test system: rat brain homogenates; assay: Iron/ascorbate mediated lipid peroxidation of rat brain homogenates (TBARS); format: biochemical; conditions: for IC50: rat brain homogenate, 30 minutes incubation with iron and ascorbate, TBARS
Method: Frozen adult Sprague-Dawley rat brains (Pel-Freez, Rogers, Ark.) were homogenized with a polytron (Turrax T25, Germany) in 5 volumes of ice cold 50 mM potassium phosphate at pH 7.4. Homogenate protein concentration was determined with the Coomassie Plus protein assay (Pierce, Rockford, Ill.) using bovine serum albumin as a standard. The homogenate volume was adjusted with buffer to give a final protein concentration of 10 mg/ml and frozen as aliquots at […].
Rat brain homogenates (2 mg protein) were incubated with varying concentrations of antioxidant at 37° C. for 15 minutes. Oxidation of the rat brain homogenate was initiated by the addition of 0.1 ml of a freshly prepared anaerobic stock solution containing iron(II) chloride (0.25 mM) and ascorbate (1 mM) as previously reported (Braughler et al, J. Biol. Chem. 262:10438 (1987)). Samples (final volume 1 ml) were placed in a shaking water bath at 37° C. for 30 minutes. The reactions were stopped by the addition of 0.1 ml of a stock butylated hydroxytoluene (60 mM) solution in ethanol.
The concentration of thiobarbituric acid reactive species (TBARS) in rat brain homogenates was used as a index of lipid peroxidation (Bernhem et al, J. Biol. Chem. 174:257 (1948); Witz et al, J. Free Rad. Biol. Med. 2:33 (1986); Kikugawa et al, Anal. Biochem. 202:249 (1992); Jentzsch et al, Free Rad. Biol. Med. 20P251 (1996)). Malondialdehyde standards were obtained by adding 8.2 μl of 1,1,3,3-tetramethoxypropane in 10 ml of 0.01 M HCl and mixing for 10 minutes at room temperature. This stock was further diluted in water to give standards that ranged from 0.25 to 25 μM. Samples or standards (200 μl) were acidified with 200 μl of 0.2 M phosphoric acid in 1.5 ml locking microfuge tubes. The color reaction was initiated by the addition of 25 μl of a 0.11M thiobarbituric acid solution and samples were placed in a 90° C. heating block for 45 minutes. TBARS were extracted with 0.5 ml of n-butanol by vortexing samples for 3 minute and chilling on ice for 1 minute. The samples were then centrifuged at 12,000×g for 3 minutes, 150 μl aliquots of the n-butanol phase were placed in each well of a 96-well plate and read at 535 nm in a Thermomax platereader (Molecular Devices, Sunnyvale, Calif.) at 25° C. Sample absorbencies were converted to MDA equivalencies (μM) by extrapolation from the MDA standard curve. None of the antioxidants at concentrations employed in these studies affected the reaction of MDA standards with thiobarbituric acid and reactions without TBA were used as subtraction blanks.
Data were presented as their means ±SE. The inhibitory concentration of antioxidants that decreased the degree of lipid peroxidation by 50% (IC50) and respective 95% confidence intervals (CI) were determined by fitting a sigmoidal curve with variable slope to the data (GraphPad Prizm, San Diego, Calif.).

[5] = test system: mean arterial pressure; assay: Effect on vascular tone: blood pressure in anesthetized rats; format: in vivo; conditions: rat; for duration of the hypotensive effect: i.v.
Method: Rats were anesthetized and a femoral vein and carotid artery were cannulated. While blood pressure was monitored by the carotid artery, Mn TM-2-PyP was injected i.v. at doses ranging from 0.1 to 3.0 mg/kg. Mean arterial pressure fell from 100-125 mmHg to 50-60 mmHg within five to ten minutes. The effect was transient, lasting up to 30 minutes at doses of 0.1 to 0.25 mg/kg. […] Scavenging of superoxide in vascular walls would potentiate the effects of nitric oxide producing hypotension.

[6] = test system: airway hyperreactivity; assay: Airway hyperreactivity to methacholine in ovalbumin sensitized mice; format: in vivo, mouse; conditions: intratracheal 2 μg daily for 4 days, methacholine 20, 30 and 40 mg/ml
Method: Mice were sensitized by intraperitoneal injection of ovalbumin twice, 14 days apart. Fourteen days after the second i.p. injection they were challenged with aerosolized ovalbumin daily for three days. Forty-eight hours after the third inhalation of ovalbumin they were given a 1 minute methacholine challenge and airway hyperreactivity followed using a Buxco body plethysmograph. Significant increases in airway resistance as measured by the PENH index occurred at doses of 20, 30 and 40 mg/ml of methacholine. […] This dose of in TM-2-PyP is equivalent to 0.8 mg/kg whole body dose.

Compound: CC[n+]1ccccc1-c1c2nc(c(-c3cccc[n+]3CC)c3ccc([n-]3)c(-c3cccc[n+]3CC)c3nc(c(-c4cccc[n+]4CC)c4ccc1[n-]4)C=C3)C=C2.[Mn+3] [MnTE-2-PyP^5+, manganic meso-tetrakis-(N-ethylpyridinium-2-yl)porphyrin]
- toxicity due to interaction with DNA, comparison between ortho derivatives ([1]; Table 2 and FIG. 3): significantly less toxic than the methyl derivative
- lung pathology: inflammation ([2]; 0.5 mg/kg/24 hr i.v., 10 days): absence of inflammation
- clinical decompensation of the lungs ([2]; days 9 and 10, 0.5 mg/kg/24 hr i.v.): no evidence of clinical decompensation
- oxygenation index ([2]; neonatal baboon, 100% oxygen, 0.5 mg/kg/24 hr i.v. continuous infusion, 10 days): marked improvement
- lung pathology: lung injury ([2]; vs prior animals treated with 100% oxygen): marked decrease

Compound: manganese(III) 5,10,15,20-tetrakis(N-methylpyridyl)porphyrin [MnTM-2-PyP^5+]
- difference in SOD activity, ortho vs para ([3]; MnTM-2-PyP vs MnTM-4-PyP): factor of six
- SOD [3]: 8,500 U/mg
- increase in potency as lipid peroxidation inhibitor, ortho vs para ([4]; MnTM-2-PyP vs MnTM-4-PyP): 15 fold
- IC50 [4]: 1 µM
- mean arterial pressure after injection ([5]; i.v. 0.1 to 3.0 mg/kg, fell from 100-125 mmHg within five to ten minutes): 50-60 mmHg
- duration of the hypotensive effect ([5]; doses of 0.1 to 0.25 mg/kg): up to 30 minutes
- duration of the hypotensive effect ([5]; doses of 1-3 mg/kg): up to two hours
- interaction with DNA ([1]; SOD activity in vitro in the presence of DNA): greatly decreased
- airway hyperreactivity (PENH index) [6]: statistically significant reduction

Compound: manganese(III) 5,10,15,20-tetrakis(N-methylpyridyl)porphyrin [MnTM-4-PyP^5+, reference compound]
- SOD [3]: 547 U/mg
- IC50 [4]: 16 µM
